Legend:
[1] = system: DU145 prostate carcinoma human cell lines; experiment: DU145 prostate carcinoma human cell lines grown i.d. in nude mice; assay type: in vivo
Procedure: DU145 Prostate Carcinoma Human Cell Lines Grown i.d. in Nude Mice
DU145 prostate carcinoma human cell lines are grown i.d. in nude mice. Tumor cell (10^6) are injected intradermally (i.d.) on the left and right flank of nude mice. Treatment with compounds is started after 25-32 days when tumors reach a size of 80-100 mm^2. At this time animals are sorted into groups with equivalent mean and range of tumor sizes. Treatment is then randomized to the different groups. Tumor size is measured with calipers on a weekly basis.
After 4 weeks of treatment, 50 mg/kg po/day of PTK787 (active ingredient 1) reduces the tumor growth by 74%. 50 mg/kg po/day of the selective EGF receptor tyrosine kinase inhibitor as described in Example 1 of WO 96/33980 (active ingredient 2) reduces tumor growth by 91%. The maximum effects of either agent given alone in this model is stable disease. Simultaneous treatment with both active ingredients (50 mg/kg po/day of each active ingredient) results in tumor regression (25% reduction compared to intial tumor weight).
After 2 weeks of treatment, 50 mg/kg po/day of PTK787 (active ingredient 1) reduces the tumor growth by 41%. 50 mg/kg po/day of the selective EGF receptor tyrosine kinase inhibitor PKI166 reduces tumor growth by 44%. Simultaneous treatment with both active ingredients (50 mg/kg po/day of each active ingredient) reduces the tumor growth by 74%.

[2] = system: NeuT transfected HC11 mouse mammary epithelial cells (breast tumors); experiment: Mouse breast carcinoma induced by transfection of breast epithelial cells with NeuT (transgenic organ tumor model); assay type: in vivo; conditions: female BALB/c mice, 100 mg/kg of each active ingredient once per day; fraction of tumors
Procedure: Treatment of Mouse Breast Carcinoma Induced by Transfection of Breast Epithelial Cells with NeuT (Transgenic Organ Tumor Model)
The dual treatment with PTK787 in the form of its succinate salt (active ingredient 1, Example 62 of WO 98/35958) and an EGF receptor tyrosine inhibitor of formula IV wherein q′ is 1, n′ is 0, R^E1 is hydrogen, R^E2 is 3-acetylamino phenyl and R^E6 is methyl (active ingredient 2, Example 22e of WO 97/02266) is performed on a genetically engineered tumor model, which uses “transgenic” organs in normal mice. NeuT (the point mutated rat homolog of erbB-2) transfected HC11 epithelial mouse mammary epithelial cells are transplanted into the gland-free mammary fat pad (cleared fat-pad) of the fourth mammary gland of female BALB/c mice according to an established method (DeOme, Faulkin, et al., Cancer Res. 19: 515-520, 1959). Within 4 to 6 weeks, the transplanted oncogene-transfected mammary epithelial cells develop breast tumors. Tumors are focal and heterogeneous in morphology, and oncogene and other molecular marker expression. Tumors grow rapidly and most of the animals develop breast tumors bilaterally after transplantation. The animals are allocated randomly to three different treatment groups. A first group is treated with 100 mg/kg of active ingredient 1 dosed once per day alone; a second group is treated with 100 mg/kg of active ingredient 2 dosed once per day alone; and a third group is treated with the combination of both active ingredients dosed with 100 mg/kg once per day. […]

[3] = 50 mg/kg po/day, after 4 weeks of treatment
[4] = 50 mg/kg po/day of each active ingredient, after 2 weeks of treatment

Compound: COc1cc2ncnc(Nc3ccc(F)c(Cl)c3)c2cc1OCCCN1CCOCC1 [Example 1 of WO 96/33980, reference compound]
- reduction of tumor growth [1, 3]: 91%

Compound: C[C@@H](Nc1ncnc2[nH]c(-c3ccc(O)cc3)cc12)c1ccccc1 [PKI166]
- reduction of tumor growth [1, 4]: 44%

Compound: Clc1ccc(Nc2nnc(Cc3ccncc3)c3ccccc23)cc1 [PTK787]
- tumors with regression [2]: 7%
- tumors with stable disease [2]: 21%
- tumors without response to the treatment [2]: 78%
- reduction of tumor growth [1, 4]: 41%
- reduction of tumor growth [1, 3]: 74%

Reference: patent US20040034026A1, “Combination comprising an agent decreasing vegf activity and an agent decreasing egf activity” (priority 2000, published 2004)
